O=C1CCC(c2ccccc2)=NN1
solubility (mole fraction)
Settings | in DMSO | in ethanol | in ethyl acetate | in ethylene glycol | in isopropanol | in n-butanol | in propylene glycol | in sec-butanol | in transcutol | in water
293.2 K | 0.637 | 0.00407 | 0.00878 | 0.0074 | 0.0031 | 0.00474 | 0.00654 | 0.00512 | 0.423 | 7.24e-07
298.2 K | 0.647 | 0.00466 | 0.00994 | 0.00836 | 0.00378 | 0.0053 | 0.00732 | 0.00555 | 0.451 | 9.18e-07
303.2 K | 0.658 | 0.00529 | 0.0111 | 0.00921 | 0.0046 | 0.00601 | 0.00846 | 0.00618 | 0.476 | 1.13e-06
308.2 K | 0.668 | 0.00607 | 0.0128 | 0.0101 | 0.00555 | 0.0067 | 0.00951 | 0.00687 | 0.502 | 1.37e-06
313.2 K | 0.677 | 0.00696 | 0.0145 | 0.0109 | 0.00651 | 0.00768 | 0.0103 | 0.00778 | 0.524 | 1.61e-06

Settings | solubility (mole fraction)
in PEG-400, 293.2 K | 0.0585
in PEG-400, 298.2 K | 0.0646
in PEG-400, 303.2 K | 0.0709
in PEG-400, 308.2 K | 0.078
in PEG-400, 313.2 K | 0.0847
